Data from patent publication US8987500B2, “4-biphenyl-substituted pyrazolidin-3,5-dione derivatives” (Bayer CropScience AG, priority 2003, dated 2015).

Key:
Type in all cases: in vivo
[1] = system: greenhouse red spider mite (Tetranychus urticae); test: Tetranychus test (OP-resistant/spray treatment), Example G; settings: Tetranychus urticae (OP-resistant), bean leaf discs, spray treatment
Description: Tetranychus Test (OP-Resistant/Spray Treatment)
(§1) To produce a suitable preparation of active compound, 1 part by weight of active compound is mixed with the stated amounts of solvents and emulsifier, and the concentrate is diluted with emulsifier-containing water to the desired concentration.
Discs of bean leaves (Phaseolus vulgaris) which are infested by all stages of the greenhouse red spider mite (Tetranychus urticae) are sprayed with a preparation of active compound of the desired concentration.
After the desired period of time, the activity in % is determined 100% means that all spider mites have been killed; 0% means that none of the spider mites have been killed.

[2] = system: larvae of the mustard beetle (Phaedon cochleariae); test: Phaedon test (spray treatment), Example E; settings: Table E, 500 g/ha active compound
Description: (§2) Phaedon Test (Spray Treatment) [table] To produce a suitable preparation of active compound, 1 part by weight of active compound is mixed with the stated amounts of solvents and emulsifier, and the concentrate is diluted with emulsifier-containing water to the desired concentration. Discs of Chinese cabbage (Brassica pekinensis) are sprayed with a preparation of active compound of the desired concentration and, after they have dried, populated with larvae of the mustard beetle (Phaedon cochleariae). After the desired period of time, the activity in % is determined 100% means that all beetle larvae have been killed; 0% means that none of the beetle larvae have been killed.

[3] = system: green peach aphid (Myzus persicae); test: Myzus test (spray treatment), Example D; settings: Table D
Description: Myzus Test (Spray Treatment)
as §1
Discs of Chinese cabbage (Brassica pekinensi), which are infested by all stages of the green peach aphid (Myzus persicae) are sprayed with a preparation of active compound of the desired concentration.
After the desired period of time, the activity in % is determined 100% means that all aphids have been killed; 0% means that none of the aphids have been killed.

[4] = system: caterpillars of the army worm (Spodoptera frugiperda); test: Spodoptera frugiperda test (spray treatment), Example F; settings: maize leaf discs
Description: as §2, with “Spodoptera frugiperda” for “Phaedon”, “maize leaves (Zea mays)” for “Chinese cabbage (Brassica pekinensis)”, “caterpillars” for “larvae”, “army worm (Spodoptera frugiperda).” for “mustard beetle (Phaedon cochleariae).”, “caterpillars” for “beetle larvae”

Cc1ccc(-c2ccc(C)c(-c3c(OC(=O)C(C)(C)C)n4n(c3=O)CCCC4)c2)cc1 [Ex. I-1-b-9]
Kill rate in % after 5d ([1]; 500 g/ha): 100%

Cc1ccc(-c2cccc(Cl)c2Cl)cc1-c1c(OC(=O)C(C)(C)C)n2n(c1=O)CCCC2 [Ex. I-1-b-10]
Kill rate in % after 5d ([1]; 500 g/ha): 90%

Cc1ccc(-c2ccc(Cl)c(Cl)c2)cc1-c1c(OC(=O)C(C)(C)C)n2n(c1=O)CCCC2 [Ex. I-1-b-13]
Kill rate in % after 7d [2]: 100%

Cc1ccc(-c2cc(Cl)cc(Cl)c2)cc1-c1c(OC(=O)C(C)(C)C)n2n(c1=O)CCCC2 [Ex. I-1-b-14]
Kill rate in % after 5d ([3]; 500 g/ha active compound): 100%

Cc1ccc(-c2ccc(F)cc2F)cc1-c1c(OC(=O)C(C)(C)C)n2n(c1=O)CCCC2 [Ex. I-1-b-15]
Kill rate in % after 7d ([4]; 500 g/ha): 100%

Cc1ccc(-c2cc(F)ccc2F)cc1-c1c(OC(=O)C(C)(C)C)n2n(c1=O)CCCC2 [Ex. I-1-b-16]
Kill rate in % after 7d [2]: 100%

Cc1ccc(-c2cccc([N+](=O)[O-])c2)cc1-c1c(OC(=O)C(C)(C)C)n2n(c1=O)CCCC2 [Ex. I-1-b-26]
Kill rate in % after 5d ([3]; 500 g/ha active compound): 100%

Cc1ccc(-c2ccc(OC(F)(F)F)cc2)cc1-c1c(OC(=O)C(C)(C)C)n2n(c1=O)CCCC2 [Ex. I-1-b-27]
Kill rate in % after 7d [2]: 100%

Cc1ccc(-c2ccc(Oc3ccccc3)cc2)cc1-c1c(OC(=O)C(C)(C)C)n2n(c1=O)CCCC2 [Ex. I-1-b-28]
Kill rate in % after 5d ([1]; 500 g/ha): 100%

Cc1ccc(-c2ccc(C(C)C)cc2)cc1-c1c(OC(=O)C(C)(C)C)n2n(c1=O)CCCC2 [Ex. I-1-b-30]
Kill rate in % after 5d ([3]; 500 g/ha active compound): 100%

Cc1ccc(-c2ccc(Cl)cc2)cc1-c1c(OC(=O)C(C)C)n2n(c1=O)CCCC2 [Ex. I-1-b-32]
Kill rate in % after 7d ([4]; 100 g/ha): 100%

Cc1ccc(-c2ccc(F)cc2)cc1-c1c(OC(=O)C2CC2)n2n(c1=O)CCCC2 [Ex. I-1-b-33]
Kill rate in % after 5d ([3]; 100 g/ha active compound): 100%

Cc1cc(C)c(-c2c(OC(=O)C(C)(C)C)n3n(c2=O)CCCC3)c(C)c1-c1ccc(F)cc1 [Ex. I-1-b-34]
Kill rate in % after 5d ([1]; 500 g/ha): 90%

CCOC(=O)Oc1c(-c2cc(-c3ccccc3C)ccc2C)c(=O)n2n1CCCC2 [Ex. I-1-c-7]
Kill rate in % after 5d ([1]; 500 g/ha): 100%

CCOC(=O)Oc1c(-c2cc(-c3ccc(C)cc3)ccc2C)c(=O)n2n1CCCC2 [Ex. I-1-c-9]
Kill rate in % after 7d [2]: 100%

CCOC(=O)Oc1c(-c2cc(-c3ccc(Cl)cc3Cl)ccc2C)c(=O)n2n1CCCC2 [Ex. I-1-c-11]
Kill rate in % after 5d ([1]; 500 g/ha): 100%

CCOC(=O)Oc1c(-c2cc(-c3cc(Cl)ccc3Cl)ccc2C)c(=O)n2n1CCCC2 [Ex. I-1-c-12]
Kill rate in % after 5d ([1]; 500 g/ha): 100%

CCOC(=O)Oc1c(-c2cc(-c3ccc(Cl)c(Cl)c3)ccc2C)c(=O)n2n1CCCC2 [Ex. I-1-c-13]
Kill rate in % after 7d ([4]; 500 g/ha): 83%

CCOC(=O)Oc1c(-c2cc(-c3cc(Cl)cc(Cl)c3)ccc2C)c(=O)n2n1CCCC2 [Ex. I-1-c-14]
Kill rate in % after 7d [2]: 100%

CCOC(=O)Oc1c(-c2cc(-c3cc(F)ccc3F)ccc2C)c(=O)n2n1CCCC2 [Ex. I-1-c-16]
Kill rate in % after 5d ([1]; 500 g/ha): 100%

CCOC(=O)Oc1c(-c2cc(-c3ccc(F)c(Cl)c3)ccc2C)c(=O)n2n1CCCC2 [Ex. I-1-c-17]
Kill rate in % after 7d ([4]; 500 g/ha): 83%
Kill rate in % after 5d ([1]; 500 g/ha): 100%

CCOC(=O)Oc1c(-c2cc(-c3cccc(C(F)(F)F)c3)ccc2C)c(=O)n2n1CCCC2 [Ex. I-1-c-18]
Kill rate in % after 7d ([4]; 500 g/ha): 100%

Cc1ccc(-c2cccc(Cl)c2)cc1-c1c(OC(=O)C(C)(C)C)n2n(c1=O)CCOCC2 [Ex. I-2-b-2]
Kill rate in % after 7d ([4]; 500 g/ha): 100%

Cc1ccc(-c2ccc(Cl)cc2)cc1-c1c(OC(=O)C(C)(C)C)n2n(c1=O)CCOCC2 [Ex. I-2-b-3]
Kill rate in % after 7d ([4]; 500 g/ha): 83%

Cc1ccc(-c2cccc(F)c2)cc1-c1c(OC(=O)C(C)(C)C)n2n(c1=O)CCOCC2 [Ex. I-2-b-5]
Kill rate in % after 7d ([4]; 500 g/ha): 100%

Cc1ccc(-c2ccc(F)cc2)cc1-c1c(OC(=O)C(C)(C)C)n2n(c1=O)CCOCC2 [Ex. I-2-b-6]
Kill rate in % after 5d ([1]; 100 g/ha): 90%

Cc1ccc(-c2cccc(Cl)c2Cl)cc1-c1c(OC(=O)C(C)(C)C)n2n(c1=O)CCOCC2 [Ex. I-2-b-10]
Kill rate in % after 5d ([1]; 500 g/ha): 100%

Cc1ccc(-c2ccc(Cl)c(Cl)c2)cc1-c1c(OC(=O)C(C)(C)C)n2n(c1=O)CCOCC2 [Ex. I-2-b-13]
Kill rate in % after 5d ([3]; 500 g/ha active compound): 100%

Cc1ccc(-c2ccc(F)c(Cl)c2)cc1-c1c(OC(=O)C(C)(C)C)n2n(c1=O)CCOCC2 [Ex. I-2-b-17]
Kill rate in % after 7d [2]: 100%

Cc1ccc(-c2cccc(C(F)(F)F)c2)cc1-c1c(OC(=O)C(C)(C)C)n2n(c1=O)CCOCC2 [Ex. I-2-b-19]
Kill rate in % after 7d [2]: 100%

Cc1ccc(-c2ccc(C(F)(F)F)cc2)cc1-c1c(OC(=O)C(C)(C)C)n2n(c1=O)CCOCC2 [Ex. I-2-b-20]
Kill rate in % after 7d ([4]; 500 g/ha): 100%

COc1ccccc1-c1ccc(C)c(-c2c(OC(=O)C(C)(C)C)n3n(c2=O)CCOCC3)c1 [Ex. I-2-b-21]
Kill rate in % after 5d ([3]; 500 g/ha active compound): 100%

Cc1ccc(-c2ccc(C(C)C)cc2)cc1-c1c(OC(=O)C(C)(C)C)n2n(c1=O)CCOCC2 [Ex. I-2-b-30]
Kill rate in % after 5d ([3]; 500 g/ha active compound): 100%

Cc1cc(C)c(-c2c(OC(=O)C(C)(C)C)n3n(c2=O)CCOCC3)c(C)c1-c1ccc(F)cc1 [Ex. I-2-b-32]
Kill rate in % after 7d [2]: 100%

CCOC(=O)Oc1c(-c2cc(-c3cccc(Cl)c3)ccc2C)c(=O)n2n1CCOCC2 [Ex. I-2-c-2]
Kill rate in % after 7d ([4]; 500 g/ha): 83%

CCOC(=O)Oc1c(-c2cc(-c3ccc(Cl)cc3)ccc2C)c(=O)n2n1CCOCC2 [Ex. I-2-c-3]
Kill rate in % after 7d ([4]; 500 g/ha): 100%

CCOC(=O)Oc1c(-c2cc(-c3ccccc3F)ccc2C)c(=O)n2n1CCOCC2 [Ex. I-2-c-4]
Kill rate in % after 7d [2]: 100%

CCOC(=O)Oc1c(-c2cc(-c3cccc(F)c3)ccc2C)c(=O)n2n1CCOCC2 [Ex. I-2-c-5]
Kill rate in % after 7d ([4]; 500 g/ha): 100%

CCOC(=O)Oc1c(-c2cc(-c3ccccc3C)ccc2C)c(=O)n2n1CCOCC2 [Ex. I-2-c-7]
Kill rate in % after 7d [2]: 100%

CCOC(=O)Oc1c(-c2cc(-c3ccc(C)cc3)ccc2C)c(=O)n2n1CCOCC2 [Ex. I-2-c-9]
Kill rate in % after 7d [2]: 100%

CCOC(=O)Oc1c(-c2cc(-c3cccc(Cl)c3Cl)ccc2C)c(=O)n2n1CCOCC2 [Ex. I-2-c-10]
Kill rate in % after 5d ([1]; 500 g/ha): 100%

CCOC(=O)Oc1c(-c2cc(-c3ccc(Cl)cc3Cl)ccc2C)c(=O)n2n1CCOCC2 [Ex. I-2-c-11]
Kill rate in % after 7d [2]: 100%

CCOC(=O)Oc1c(-c2cc(-c3cc(Cl)ccc3Cl)ccc2C)c(=O)n2n1CCOCC2 [Ex. I-2-c-12]
Kill rate in % after 7d [2]: 100%

CCOC(=O)Oc1c(-c2cc(-c3ccc(Cl)c(Cl)c3)ccc2C)c(=O)n2n1CCOCC2 [Ex. I-2-c-13]
Kill rate in % after 7d ([4]; 500 g/ha): 100%

CCOC(=O)Oc1c(-c2cc(-c3cc(Cl)cc(Cl)c3)ccc2C)c(=O)n2n1CCOCC2 [Ex. I-2-c-14]
Kill rate in % after 7d [2]: 100%

CCOC(=O)Oc1c(-c2cc(-c3ccc(F)cc3F)ccc2C)c(=O)n2n1CCOCC2 [Ex. I-2-c-15]
Kill rate in % after 7d [2]: 100%

CCOC(=O)Oc1c(-c2cc(-c3ccc(F)c(Cl)c3)ccc2C)c(=O)n2n1CCOCC2 [Ex. I-2-c-17]
Kill rate in % after 7d [2]: 100%

CCOC(=O)Oc1c(-c2cc(-c3cccc(C(F)(F)F)c3)ccc2C)c(=O)n2n1CCOCC2 [Ex. I-2-c-19]
Kill rate in % after 7d [2]: 100%

CCOC(=O)Oc1c(-c2cc(-c3ccc(C(F)(F)F)cc3)ccc2C)c(=O)n2n1CCOCC2 [Ex. I-2-c-20]
Kill rate in % after 7d ([4]; 500 g/ha): 100%

CCOC(=O)Oc1c(-c2cc(-c3ccc(OC)cc3)ccc2C)c(=O)n2n1CCOCC2 [Ex. I-2-c-23]
Kill rate in % after 5d ([1]; 500 g/ha): 100%

CCOC(=O)Oc1c(-c2cc(-c3cccc([N+](=O)[O-])c3)ccc2C)c(=O)n2n1CCOCC2 [Ex. I-2-c-26]
Kill rate in % after 5d ([1]; 100 g/ha): 90%

Cc1ccc(-c2cccc(Cl)c2Cl)cc1-c1c(O)n2n(c1=O)CCCC2 [Example I-1-a-10]
Kill rate in % after 5d ([1]; 500 g/ha): 90%

Cc1ccc(-c2ccc(Cl)cc2Cl)cc1-c1c(O)n2n(c1=O)CCCC2 [Example I-1-a-11]
Kill rate in % after 5d ([1]; 500 g/ha): 100%

Cc1ccc(-c2ccc(Cl)c(Cl)c2)cc1-c1c(O)n2n(c1=O)CCCC2 [Example I-1-a-13]
Kill rate in % after 7d [2]: 100%

Cc1ccc(-c2ccc(F)c(Cl)c2)cc1-c1c(O)n2n(c1=O)CCCC2 [Example I-1-a-17]
Kill rate in % after 5d ([1]; 500 g/ha): 90%

Cc1ccc(-c2cccc(Cl)c2)cc1-c1c(O)n2n(c1=O)CCOCC2 [Example I-2-a-2]
Kill rate in % after 5d ([1]; 500 g/ha): 90%

Cc1ccc(-c2ccc(F)cc2)cc1-c1c(O)n2n(c1=O)CCOCC2 [Example I-2-a-6]
Kill rate in % after 7d ([4]; 500 g/ha): 100%

Cc1ccc(-c2ccc(Cl)c(Cl)c2)cc1-c1c(O)n2n(c1=O)CCOCC2 [Example I-2-a-13]
Kill rate in % after 7d [2]: 100%

Cc1ccc(-c2cccc([N+](=O)[O-])c2)cc1-c1c(O)n2n(c1=O)CCOCC2 [Example I-2-a-26]
Kill rate in % after 7d [2]: 100%
